The target in this assay is T1, Tm‐mPPase (Thermotoga maritima membrane pyrophosphatase) (Thermotoga maritima, UniProt Q9S5X0).
T1 construct: gene hppA; recombinant in E. coli C41(DE3), assayed in inverted membrane vesicles; homodimer, subunit mass 77 kDa
T1 sequence (Q9S5X0 1-726): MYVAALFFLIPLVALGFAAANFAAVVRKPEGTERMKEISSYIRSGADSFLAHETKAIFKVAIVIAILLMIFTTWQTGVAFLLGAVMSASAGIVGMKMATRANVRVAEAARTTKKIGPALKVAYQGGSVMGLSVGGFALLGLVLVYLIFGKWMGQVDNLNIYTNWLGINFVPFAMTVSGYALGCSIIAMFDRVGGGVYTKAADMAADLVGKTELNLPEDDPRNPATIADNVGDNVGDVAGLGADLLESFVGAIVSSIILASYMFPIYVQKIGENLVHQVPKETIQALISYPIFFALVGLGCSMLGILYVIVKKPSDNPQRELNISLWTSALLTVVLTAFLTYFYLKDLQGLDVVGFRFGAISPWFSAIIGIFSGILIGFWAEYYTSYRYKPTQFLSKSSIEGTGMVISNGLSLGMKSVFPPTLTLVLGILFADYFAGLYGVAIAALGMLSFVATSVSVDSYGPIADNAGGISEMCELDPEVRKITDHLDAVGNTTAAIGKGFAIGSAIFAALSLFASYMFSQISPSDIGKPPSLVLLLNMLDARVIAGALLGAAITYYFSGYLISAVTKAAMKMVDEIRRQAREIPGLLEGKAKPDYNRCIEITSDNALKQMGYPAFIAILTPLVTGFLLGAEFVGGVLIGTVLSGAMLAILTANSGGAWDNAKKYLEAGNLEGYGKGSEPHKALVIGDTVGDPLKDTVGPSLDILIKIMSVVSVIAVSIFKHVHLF
The assay is described as follows: inhibition of PPi hydrolysis, active-site titration in inverted membrane vesicles, Pi analyzer. The format is biochemical. Particulars: 25°C, pH 7.2, 5 mM MgCl2, 100 mM NaCl, no K+, 8 μM PPi; competitive; tight-binding fit; apparent, not corrected for substrate; read-out: K i ^app.

The text below walks through data of paper PMC9405524, “Pre‐steady‐state kinetics and solvent isotope effects support the “billiard‐type” transport mechanism in Na ^+‐translocating pyrophosphatase” (Protein Science : A Publication of the Protein Society, 2022).

With `NC(P(=O)(O)O)P(=O)(O)O` [AMDP], the Ki was determined as 5 ± 2 nM.
